Measured values published in patent US20240382484A1, “COMPOSITION FOR TREATING, PREVENTING, OR AMELIORATING MELANOMA AND METHOD THEREOF” (Thomas Jefferson University, priority 2021, published 2024).

Columns and labels:
WM1361A and WM1366 cells = test: Reverse-phase protein array and immunoblot analysis; type: cell-based, human; conditions: immunoblot, 24 hours
Method: FIG. 15A: Reverse-phase protein array analysis of WM1361A and WM1366 cells. The cells were treated with vehicle (DMSO), either pharmacologic inhibition or genetic depletion of PDPK1 only, MEK inhibitor only and the combinations as indicated. All samples were harvested in three biological independent experiments. Proteins levels were normalized to the mean. Antibodies were limited to those that were differentially expressed (BHFDR <0.05) in at least three of the four comparisons between combination and control samples. FIG. 15B: WM1361A and WM1366 cells were treated with PD0325901 and GSK2334470 as indicated for 24 hours. Cell lysates were applied to immunoblot with indicated antibodies. FIG. 15C: WM1361A and WM1366 parental clones (iCas9) and PDPK1-depleted clones by two individual sgRNAs (KO1 and K02) treated with trametinib as indicated for 24 hours. Cell lysates were applied to immunoblot with indicated antibodies.
WM1361A and WM1366 cells were treated with vehicle control, PDPK1i (GSK2334470), MEKi (trametinib) or combined PDPK1i and MEKi for 48 hours. WM1361A and WM1366 cells were also transfected with ON-target control siRNAs or PDPK1 siRNAs, and then treated with or without trametinib for further 48 hours. Cells were harvested, lysed and analyzed as described in Tibes et al. (Mol Cancer Ther 5, 2512-2521, 2006). […]

WM1366-iCas9 xenograft = WM1366-iCas9 xenograft tumor growth in Nu/J mice; type: in vivo, mouse; conditions: trametinib-containing chow (0.3 ppm) compared with control chow
Text: FIG. 13A-13D: PDPK1 depletion delayed xenograft tumor growth in Nu/J mice, in accordance with some embodiments. FIG. 13A, Tumor growth of WM1366-iCas9 and PDPK1 knockout (KO) cells, represented as the change in volume (mm^3) over time, was shown from the start of injection to the start of treatment as indicated. Cyan dots indicated sacrifice of mice due to lack of visible tumors. The dotted line at 50 mm^3 indicates the size at which trametinib treatment was started. FIG. 13B: Time for tumor growth of WM1366-iCas9 cells to the start of treatment in male and female mice. Lines represent median number of days from the time of tumor implantation to the treatment size of 50 mm^3. The mouse without tumor formation was monitored for 105 days. p values were calculated with an unpaired two-tailed t test. […] FIG. 13D: Kaplan-Meier survival curves of WM1366-iCas9 tumor-bearing in female or male mice as indicated. p values were calculated by GraphPad Prism 9.0 with Log-rank (Mantel-Cox) test. n.s., not significant.
Animal experiments were performed at Thomas Jefferson University in a facility accredited by the Association for the Assessment and Accreditation of Laboratory Animal Care and were approved by the Institutional Animal Care and Use Committee (protocol #1052). […] Mouse weights were monitored once a week or three times per week during drug treatment. […]

`O=C(NOC[C@H](O)CO)c1ccc(F)c(F)c1Nc1ccc(I)cc1F` [PD0325901, (R)—N-(2,3-dihydroxypropoxy)-3,4-difluoro-2-((2-fluoro-4-iodophenyl)amino)benzamide] was tested, and the “p-S6, second MEKi with PDPK1i or sgRNA PDPK1 depletion” value (WM1361A and WM1366 cells) was “enhanced reduction”.
With `CC(=O)Nc1cccc(-n2c(=O)n(C3CC3)c(=O)c3c(Nc4ccc(I)cc4F)n(C)c(=O)c(C)c32)c1` [trametinib, N-(3-(3-cyclopropyl-5-((2-fluoro-4-iodophenyl)amino)-6,8-dimethyl-2,4,7-trioxo-3,4,6,7-tetrahydropyrido[4,3-d]pyrimidin-1(2H)-yl)phenyl)acetamide] the tumor growth (WM1366-iCas9 xenograft) was “delayed”.
